Data reported in patent US20230219949A1, “INHIBITORS OF (ALPHA-V)(BETA-6) INTEGRIN” (priority 2018, published 2023).
pIC50: −log10 of the molar value. Where “and” joins values, the source holds several entries; their conditions need not be identical. Equal entries are not always repeated.

Columns and labels:
[1] = target: integrin αvβ6 (Homo sapiens, UniProt P06756+P18564); test: Fluorescence polarization assay for αvβ6 binding (competition with fluorescein-labeled peptide GRGDLGRL); details: fluorescence polarization assay of Example 12; 10 nM integrin αvβ6, 3 nM labeled peptide; read-out: avb6. (IC50)
Description: Fluorescence Polarization (FP) assays were used to measure compound activity through binding competition with the fluorescein-labeled peptide GRGDLGRL. In the assay, 10 nM of integrin αvβ6 was incubated with the test compound in 2 mM manganese chloride, 0.1 mM calcium chloride, 20 mM HEPES buffer at pH 7.3, 150 mM sodium chloride, 0.01% Triton X-100, 2% DMSO, and 3 nM of the fluorescein-labeled peptide. The assays were run in 384-well plates. For both assay versions, the integrin protein was pre-incubated with the test compounds for 15 minutes at 22° C. before the fluorescein-labeled peptide was added. After the fluorescein-labeled peptide was added, the assay was incubated at 22° C. for 1 hour and fluorescence polarization was measured. IC50 values were determined by nonlinear regression, 4-parameter curve fitting (FIG. 1).

[2] = MDCK in vitro permeability assay, wild type MDCK cells with no inhibitor (A→B); assay type: in vitro ADME, Canine; details: dog, no Pgp inhibitor, apical to basolateral
Description: (§1) Compounds were tested for permeability in an MDCK permeability assay. This assay measures the ability of compounds to cross a layer of Madin-Darby Canine Kidney (MDCK) cells from the apical to basolateral side (A→B). This measurement is predictive of the ability of compounds to be absorbed in the gut following oral dosing, an essential characteristic of an orally administered small molecule integrin inhibitor drug.
(§2) The assay is run in two formats. One uses wild type MDCK cells with no inhibitor. This method works well in determining the passive permeability of compounds with low efflux by P-glyocprotein (Pgp), and was used to assess permeability of a Reference Compound having the chemical formula shown below.
(§3) Cell Culture and Maintenance: • Cell stock cultures (MDCK or MDCK MDR1) are maintained in MEM+10% FBS+1% NEAA, grown in 75 cm^2 tissue culture treated flasks and split (passed) 2 times weekly to maintain desired confluence. • For maintenance passage: trypsinized cells are routinely distributed into new flasks at a standard passage ratio of 1:20.
(§4) Seeding assay plates: MDCK assay plates are seeded with MDCK or MDCK MCR1 cells 3-4 days prior to running the assay. 24-well plates are seeded at a cell density of 0.88×10^5/well in a 400 μL apical chamber volume (2.2×10^5/mL) with a […] volume of growth medium to the 24-well basal chamber. […]

[3] = tested on: Madin-Darby Canine Kidney (MDCK) cells; test: as above; assay type: in vitro ADME; details: no Pgp inhibitor, apical to basolateral
Description: as §1, §2, §3, §4

Chain of integrin αvβ6 (P06756 31-992 limits assumed): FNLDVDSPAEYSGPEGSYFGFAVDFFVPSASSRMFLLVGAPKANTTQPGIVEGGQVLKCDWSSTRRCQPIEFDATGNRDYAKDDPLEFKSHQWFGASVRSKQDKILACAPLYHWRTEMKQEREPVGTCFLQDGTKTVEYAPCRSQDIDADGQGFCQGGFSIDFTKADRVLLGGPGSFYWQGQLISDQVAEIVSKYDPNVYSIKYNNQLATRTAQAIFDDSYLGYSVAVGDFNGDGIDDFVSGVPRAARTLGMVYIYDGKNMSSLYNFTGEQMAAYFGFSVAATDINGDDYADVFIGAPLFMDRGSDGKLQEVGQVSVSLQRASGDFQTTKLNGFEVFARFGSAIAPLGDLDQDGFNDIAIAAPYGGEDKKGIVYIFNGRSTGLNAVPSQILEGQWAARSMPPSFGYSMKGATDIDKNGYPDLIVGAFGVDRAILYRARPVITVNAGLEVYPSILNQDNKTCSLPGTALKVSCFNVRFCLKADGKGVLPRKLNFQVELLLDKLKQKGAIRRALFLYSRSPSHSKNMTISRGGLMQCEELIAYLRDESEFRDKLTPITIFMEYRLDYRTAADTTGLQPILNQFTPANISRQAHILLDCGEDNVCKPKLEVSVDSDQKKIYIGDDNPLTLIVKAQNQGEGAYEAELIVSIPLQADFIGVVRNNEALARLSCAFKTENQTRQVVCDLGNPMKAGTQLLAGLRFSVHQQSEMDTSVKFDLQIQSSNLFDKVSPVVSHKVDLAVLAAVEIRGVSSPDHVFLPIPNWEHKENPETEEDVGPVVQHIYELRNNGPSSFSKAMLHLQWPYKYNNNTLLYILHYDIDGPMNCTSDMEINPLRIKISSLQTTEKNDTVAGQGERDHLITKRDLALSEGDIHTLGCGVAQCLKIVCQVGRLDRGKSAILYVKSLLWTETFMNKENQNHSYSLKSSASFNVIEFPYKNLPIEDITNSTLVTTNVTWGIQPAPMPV
Chain of integrin αvβ6 (P18564 22-709 limits assumed): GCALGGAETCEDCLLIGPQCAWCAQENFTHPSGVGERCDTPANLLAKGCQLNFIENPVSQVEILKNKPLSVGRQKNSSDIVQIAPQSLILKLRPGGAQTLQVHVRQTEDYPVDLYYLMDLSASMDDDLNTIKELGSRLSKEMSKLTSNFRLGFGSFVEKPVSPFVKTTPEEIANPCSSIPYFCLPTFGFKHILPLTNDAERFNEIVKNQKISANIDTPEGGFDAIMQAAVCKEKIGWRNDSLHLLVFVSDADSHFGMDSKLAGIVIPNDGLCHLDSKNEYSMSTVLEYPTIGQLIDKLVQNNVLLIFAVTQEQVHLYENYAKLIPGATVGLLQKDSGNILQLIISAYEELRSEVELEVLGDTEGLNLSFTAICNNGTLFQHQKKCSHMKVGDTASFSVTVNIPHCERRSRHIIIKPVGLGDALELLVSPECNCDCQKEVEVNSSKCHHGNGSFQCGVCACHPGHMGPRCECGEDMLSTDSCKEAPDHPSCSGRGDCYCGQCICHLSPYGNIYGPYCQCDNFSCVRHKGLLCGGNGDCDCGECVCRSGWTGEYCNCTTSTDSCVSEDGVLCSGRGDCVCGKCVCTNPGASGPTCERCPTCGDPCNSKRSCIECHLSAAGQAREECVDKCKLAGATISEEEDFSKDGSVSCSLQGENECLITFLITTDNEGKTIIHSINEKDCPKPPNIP

- pIC50 [1]: ~7.02 and 7.02
- Papp A→B at 90 min, 5 μM [2]: < 0.23 ×10⁻⁶ cm/s
- MDCK (A−>B) [3]: less than 0.23
Structure (SMILES): O=C(O)CN1CCC(C(=O)N2CCC(c3ccc4c(n3)NCCC4)CC2)CC1 [Reference Compound]
